According to patent US12029738B2, “Antiproliferative compounds and methods of use thereof” (Celgene Corporation, priority 2017, dated 2024):
“Also recorded” adds a separate entry of the source.

Columns and labels:
[1] = in vivo; conditions: male, CD-IGS, rat, po
Method: 7-Day Exploratory Toxicology Studies in Male Rats. Methods. Male CD-IGS rats (n=5/group for toxicologic assessment; n=4/group for toxicokinetic assessment) were dosed once daily by oral gavage (10 mL/kg) with vehicle (0.5% HPMC/0.25% Tween-80 in 50 mM citrate, pH 2.6-2.8) or test articles (Compound A or Compound 1) at 100, 300 or 1000 mg/kg/day for 7 consecutive days. Blood samples for toxicokinetics were collected on Days 1 and 7. […] Body weight was recorded at randomization, prior to dosing on Days 1-7 and prior to necropsy. Samples for hematology and serum chemistry analyses were collected on Day 8, approximately 24 h after the last dose. Rats were euthanized on Day 8 for necropsy. Anatomic pathology evaluation consisted of gross observation, organ weight and histopathologic examination of select tissues.

[2] = system: H929-1051 cells; experiment: Cell apoptosis assay (Caspase-3 live cell imaging); format: cell-based, human
Excerpt: FIG. 1A and FIG. 1B. (FIG. 1A) Change in apoptosis induction, as measured by area under the curve of Caspase 3 fold induction (aka apoptosis index) over time in lenalidomide resistant H929-1051 cells. Abscissa: log nM (compound), ordinate: apoptosis index. The lines of best fit are a 3-parameter logistic equation calculated in GraphPad Prism. (FIG. 1B) The area under the curve of the concentration-response curves for Compound 1 and Compound A in H929-1051 cells were used to compare the compounds' ability to induce apoptosis after a 6 h exposure and then dilution resulting in about a 20-fold reduction of compound concentration.
Cell Apoptosis Assays: The ability of the compounds to induce apoptosis was assessed in selected MM cell lines at the time points and compound concentrations indicated. As a marker of apoptosis, the level of Caspase-3 activity was measured in MM cells using live cell imaging. To image suspension cells, 96-well plates were coated with fibronectin so cells would adhere and lie flat on the bottom of the plate. Cells were added to 96-well plates using a Multidrop Combi Reagent Dispenser (Thermo Scientific, Waltham, MA) the night before compound addition. […] Cleavage of the Caspase-3 enzyme substrate and cellular confluence in each well was detected via imaging at 10× on the IncuCyte ZOOM System every 4-6 h for 5 days. […]
Compound 1 Induced Apoptosis in Multiple Myeloma Cell Lines. […] To determine the ability of compounds to induce apoptosis and to characterize kinetically the onset of this process, Caspase-3 induction was measured over time in lenalidomide-resistant, H929-1051 cells (FIG. 1A and FIG. 1B). H929-1051 cells were incubated with the compounds at concentrations of 1 nM, 10 nM, 100 nM and 1000 nM and apoptosis was assessed over time. […] Next, the area under the curve (AUC) was calculated for each concentration and used to generate the concentration-response curves for each compound. This provided quantitative evidence of the ability of Compound 1 to induce apoptosis in H929-1051.

[3] = system: H929-1051 xenograft; experiment: Lenalidomide-resistant H929-1051 xenograft, continuous QD dosing; format: in vivo, mouse
Excerpt: FIG. 4. Antitumor activity of Compound 2 with continuous dosing in lenalidomide-resistant H929-1051 xenograft model. Female SCID mice were inoculated with 10×10^6 H929-1051 tumor cells into the right flank. Mice were randomized into treatment groups (n=10/group) at the time of treatment initiation. Test article treatment started on Day 14 when the tumors were approximately 120 mm^3.
Antitumor Activity of Compound 2 in Lenalidomide-resistant Multiple Myeloma Xenograft Model. The purpose of the study was to test the single agent antitumor activity of Compound 2 in an H929-1051 xenograft model with once daily dosing (QD) at 1, 3, 10, and 30 mg/kg.

[4] = system: lenalidomide-resistant NCI-H929 (H929-1051) multiple myeloma/plasmacytoma tumors; experiment: H929-1051 xenograft, Compound 2 alone and with dexamethasone; format: in vivo, mouse
[5] = target: T1, CYP1A2 (Homo sapiens, UniProt P05177); experiment: CYP inhibition in pooled human liver microsomes; format: in vitro ADME; conditions: up to 30 μM
T1 construct: from tissue; host or cells: pooled human liver microsomes
T1 sequence (P05177 whole entry): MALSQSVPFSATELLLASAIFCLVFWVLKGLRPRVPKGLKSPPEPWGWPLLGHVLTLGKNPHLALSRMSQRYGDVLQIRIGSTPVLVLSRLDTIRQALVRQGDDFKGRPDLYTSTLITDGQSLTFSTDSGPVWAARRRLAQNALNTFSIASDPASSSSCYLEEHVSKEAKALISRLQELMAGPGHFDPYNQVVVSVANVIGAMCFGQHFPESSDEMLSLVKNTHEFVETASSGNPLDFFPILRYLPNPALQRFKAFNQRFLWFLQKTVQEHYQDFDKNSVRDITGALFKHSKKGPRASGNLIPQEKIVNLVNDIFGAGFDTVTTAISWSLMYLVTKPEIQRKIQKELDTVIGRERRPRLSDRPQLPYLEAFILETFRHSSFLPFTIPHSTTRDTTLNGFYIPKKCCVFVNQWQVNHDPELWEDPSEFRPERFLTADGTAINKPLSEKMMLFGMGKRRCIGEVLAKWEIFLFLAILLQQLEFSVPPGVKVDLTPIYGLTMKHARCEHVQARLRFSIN
Method: (§1) Methods. […] In addition, the compounds were evaluated for their potential to act as a time-dependent inhibitors at the same concentrations mentioned above. […] In addition to appropriate vehicle controls, known direct inhibitors and time-dependent inhibitors of CYP isoforms were included as positive controls. Following the incubation, concentrations of probe substrate metabolites were quantified using established LC/MS/MS methods. The extent of inhibition was expressed as the percentage of control activity.

[6] = target: T2, CYP2A6 (Homo sapiens, UniProt P11509); experiment: CYP inhibition in pooled human liver microsomes; format: in vitro ADME; conditions: up to 30 μM
T2 construct: from tissue; host or cells: pooled human liver microsomes
T2 sequence (P11509 whole entry): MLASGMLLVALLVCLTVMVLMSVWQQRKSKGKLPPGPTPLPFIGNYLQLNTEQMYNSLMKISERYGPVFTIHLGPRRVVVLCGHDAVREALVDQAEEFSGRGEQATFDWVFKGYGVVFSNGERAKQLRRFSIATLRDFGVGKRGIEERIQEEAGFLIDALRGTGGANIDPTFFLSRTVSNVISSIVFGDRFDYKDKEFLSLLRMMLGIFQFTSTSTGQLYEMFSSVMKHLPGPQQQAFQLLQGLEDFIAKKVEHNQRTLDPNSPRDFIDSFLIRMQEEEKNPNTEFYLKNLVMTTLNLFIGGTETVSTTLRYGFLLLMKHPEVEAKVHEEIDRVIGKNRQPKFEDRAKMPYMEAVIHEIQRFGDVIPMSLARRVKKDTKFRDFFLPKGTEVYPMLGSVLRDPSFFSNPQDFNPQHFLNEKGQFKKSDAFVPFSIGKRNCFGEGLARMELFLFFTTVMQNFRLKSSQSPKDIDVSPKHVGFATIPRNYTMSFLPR
Method: as §1

[7] = target: T3, CYP2E1 (Homo sapiens, UniProt P05181); experiment: CYP inhibition in pooled human liver microsomes; format: in vitro ADME; conditions: up to 30 μM
T3 construct: from tissue; host or cells: pooled human liver microsomes
T3 sequence (P05181 whole entry): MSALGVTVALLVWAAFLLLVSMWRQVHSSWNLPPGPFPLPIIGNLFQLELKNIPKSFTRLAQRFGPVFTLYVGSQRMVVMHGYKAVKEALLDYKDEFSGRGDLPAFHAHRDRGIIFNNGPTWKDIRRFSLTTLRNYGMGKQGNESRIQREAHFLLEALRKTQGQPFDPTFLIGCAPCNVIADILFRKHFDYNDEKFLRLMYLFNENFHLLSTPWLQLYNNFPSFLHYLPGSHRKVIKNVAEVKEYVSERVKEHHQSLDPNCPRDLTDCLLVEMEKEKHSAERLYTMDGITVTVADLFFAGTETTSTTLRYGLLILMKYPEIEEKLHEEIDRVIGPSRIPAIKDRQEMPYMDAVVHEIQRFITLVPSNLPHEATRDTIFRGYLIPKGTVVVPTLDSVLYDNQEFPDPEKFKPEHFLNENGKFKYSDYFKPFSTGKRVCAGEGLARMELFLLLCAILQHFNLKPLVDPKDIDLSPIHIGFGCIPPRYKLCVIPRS
Method: as §1

[8] = target: T4, CYP2D6 (Homo sapiens, UniProt P10635); experiment: CYP inhibition in pooled human liver microsomes; format: in vitro ADME; conditions: up to 30 μM
T4 construct: from tissue; host or cells: pooled human liver microsomes
T4 sequence (P10635 whole entry): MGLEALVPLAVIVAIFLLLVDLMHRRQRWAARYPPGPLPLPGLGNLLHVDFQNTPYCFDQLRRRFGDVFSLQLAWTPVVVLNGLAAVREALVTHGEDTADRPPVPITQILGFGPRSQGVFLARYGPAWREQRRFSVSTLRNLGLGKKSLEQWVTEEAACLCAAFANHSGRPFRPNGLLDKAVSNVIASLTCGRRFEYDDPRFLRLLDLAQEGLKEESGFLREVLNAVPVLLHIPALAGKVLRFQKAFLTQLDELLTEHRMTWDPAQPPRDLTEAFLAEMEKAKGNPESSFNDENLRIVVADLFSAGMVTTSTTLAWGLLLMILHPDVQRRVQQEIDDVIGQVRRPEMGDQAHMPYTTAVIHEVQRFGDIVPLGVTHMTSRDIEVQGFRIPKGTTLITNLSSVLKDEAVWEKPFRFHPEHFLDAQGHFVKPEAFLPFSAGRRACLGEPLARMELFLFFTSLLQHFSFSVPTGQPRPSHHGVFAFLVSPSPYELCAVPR
Method: as §1

[9] = target: T5, CYP2C8 (Homo sapiens, UniProt P10632); experiment: CYP inhibition in pooled human liver microsomes; format: in vitro ADME; conditions: up to 30 μM
T5 construct: from tissue; host or cells: pooled human liver microsomes
T5 sequence (P10632 whole entry): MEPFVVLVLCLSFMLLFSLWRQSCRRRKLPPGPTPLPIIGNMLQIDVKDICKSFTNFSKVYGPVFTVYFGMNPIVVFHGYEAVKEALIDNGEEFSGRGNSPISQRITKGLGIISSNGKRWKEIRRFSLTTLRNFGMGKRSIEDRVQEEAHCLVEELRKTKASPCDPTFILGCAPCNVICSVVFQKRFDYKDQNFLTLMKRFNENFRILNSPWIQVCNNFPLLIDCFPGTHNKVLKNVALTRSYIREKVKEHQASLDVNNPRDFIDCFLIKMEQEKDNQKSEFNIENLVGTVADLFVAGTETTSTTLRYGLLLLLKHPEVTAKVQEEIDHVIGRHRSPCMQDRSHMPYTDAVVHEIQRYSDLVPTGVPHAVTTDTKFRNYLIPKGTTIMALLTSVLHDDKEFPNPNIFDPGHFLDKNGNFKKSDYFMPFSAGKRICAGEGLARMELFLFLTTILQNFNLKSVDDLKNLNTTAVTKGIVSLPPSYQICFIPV
Method: as §1

[10] = 30 minute preincubation with or without NADPH

## N#Cc1ccc(N2CCN(Cc3ccc(COc4cccc5c4CN(C4CCC(=O)NC4=O)C5=O)cc3)CC2)c(F)c1 (racemic) [Compound 1, 4-(4-(4-(((2-(2,6-dioxopiperidin-3-yl)-1-oxoisoindolin-4-yl)oxy)methyl)benzyl)piperazin-1-yl)-3-fluorobenzonitrile]
[1]; 100 mg/kg/day
  AUC(0-t): 143 µM·h
[1]; 300 mg/kg/day
  AUC(0-t): 514 µM·h
[1]; 1000 mg/kg/day
  AUC(0-t): 1220 µM·h
[1]; 7 days
  dose at which minimal decreases in body weight gain were observed: ≥ 300 mg/kg
[2]; 1-1000 nM
  time of near maximal apoptosis induction: ~72 h
[2]; 1-1000 nM, all concentrations
  time at which apoptosis induction begins: around 48 h
[2]; 6 h exposure then about 20-fold dilution, relative to Compound A
  apoptotic induction (total AUC) compared to Compound A: 126%

## N#Cc1ccc(N2CCN(Cc3ccc(COc4cccc5c4CN([C@H]4CCC(=O)NC4=O)C5=O)cc3)CC2)c(F)c1 [Compound 2, (S)-4-(4-(4-(((2-(2,6-dioxopiperidin-3-yl)-1-oxoisoindolin-4-yl)oxy)methyl)benzyl)piperazin-1-yl)-3-fluorobenzonitrile]
[3]; 1 mg/kg QD
  tumor volume reduction: 75%
[3]; 3 mg/kg QD
  tumor volume reduction: 86%
[3]; 10 mg/kg QD
  tumor volume reduction: 84%
[3]; 30 mg/kg QD
  tumor volume reduction: 85%
[4]; Compound 2 0.1 mg/kg and dexamethasone 0.5 mg/kg
  combination antitumor activity (fractional product method): synergistic
[4]; Compound 2 0.1 mg/kg in combination with dexamethasone 0.5 mg/kg
  tumor volume reduction (TVR): 84%
[4]; single agent Compound 2 0.1 mg/kg oral once daily
  tumor growth inhibition / tumor volume reduction (TVR): 34%

## O=C1CC[C@H](N2Cc3c(OCc4ccc(CN5CCN(c6ccc(F)cc6F)CC5)cc4)cccc3C2=O)C(=O)N1 [Compound B]
[5]; [10]
  time-dependent inhibition of CYP1A2: little to no time-dependent inhibition; also recorded: not a time-dependent inhibitor
[5]; human liver microsomes
  direct inhibition of CYP1A2: up to 30%
[6]; [10]
  time-dependent inhibition of CYP2A6: little to no time-dependent inhibition; also recorded: not a time-dependent inhibitor
[6]; human liver microsomes
  direct inhibition of CYP2A6: up to 30%
[7]; [10]
  time-dependent inhibition of CYP2E1: little to no time-dependent inhibition; also recorded: not a time-dependent inhibitor
[7]; human liver microsomes
  direct inhibition of CYP2E1: up to 30%
[8]; [10]
  time-dependent inhibition of CYP2D6: little to no time-dependent inhibition; also recorded: not a time-dependent inhibitor
[8]; human liver microsomes
  direct inhibition of CYP2D6: up to 30%
[9]; [10]
  time-dependent inhibition of CYP2C8: little to no time-dependent inhibition; also recorded: not a time-dependent inhibitor
[9]; human liver microsomes
  direct inhibition of CYP2C8: up to 30%
